In US20260249027A1, “METERED DOSE INHALERS AND HIGH-DOSE SUSPENSIONS” (Kindeva Drug Delivery L.P., priority 2023, published 2026):

Experiments:
Format in all cases: physicochemical
[1] = Through life dose consistency of nintedanib (free base) pMDI suspensions (USP <601>, apparatus A)
Method: (§1) In the following examples, dose consistency was determined by in vitro measurement of single actuation dose content at start, middle and end of pMDI unit life in line with U.S. Pharmacopeia (USP)<601>, using a flow rate of 28.3 L/min and apparatus A. Aerodynamic particle size distribution of the pMDI suspension aerosols was measured at start of unit life in line with U.S. Pharmacopeia (USP)<601> using a Next Generation impactor without pre-separator (apparatus 6) and a flow rate of 30 L/min.
(§2) Suspensions of micronized nintedanib (free base) in HFA-152a or HFO-1234ze(E) were prepared. A first set of suspensions included no ethanol. A second set of suspensions included 2% ethanol by weight. Each suspension included an amount of nintedanib (free base) to provide a nominal delivered dose (ex-valve) of 0.5 mg/actuation (7.94 mg/mL) or 1.0 mg/actuation (15.87 mg/mL). Two further suspensions including no ethanol were prepared which included an amount of nintedanib (free base) to provide a nominal delivered dose (ex-valve) of 2.0 mg/actuation (20.0 mg/mL).
(§3) In total, ten suspension pMDI formulations were prepared in triplicate with sufficient fill weight to provide 60 actuations. The pMDI formulations containing 0.5 mg/actuation (7.94 mg/mL) and 1.0 mg/actuation (15.87 mg/mL) of nintedanib (free base) were filled into Kindeva FEP coated canisters, crimped with a Kindeva 63-μL valve. The pMDI formulations containing 2.0 mg/actuation (20.0 mg/mL) of nintedanib (free base) were filled into Kindeva FEP coated canisters, crimped with a Kindeva 100-μL valve. Each pMDI unit was sonicated for at least 10 minutes to disperse the suspended drug and tested with a Kindeva actuator having an exit orifice diameter (EOD) of 0.4 mm.
The through-life (TL) dose consistency of each pMDI unit was determined by measuring the mean ex-actuator delivered dose in micrograms of nintedanib (free base) (N=3) at the start of life (SoL), middle of life (MOL) and end of life (EoL) of the unit.

[2] = Aerodynamic particle size measurement of nintedanib (free base) pMDI suspensions (Next Generation impactor)
Text: In general, aerosols with mass median aerodynamic diameters (MMAD) of at least 1 μm but less than 5 μm in size are suitable for effective deep lung deposition for therapeutic effect. Herein, fine particle fraction (FPF) is defined as the percentage of the ex-actuator delivered API having a MMAD of less than 5 μm when tested in vitro. Herein, “ex-actuator” delivered dose is used to describe the amount of API delivered past the actuator of a pMDI. Therefore, an aerosol with a high FPF is typically suitable for deep lung deposition.
as §1, §2
as §3, with “mm. The mass median aerodynamic diameter (MMAD) and fine particle fraction (FPF) of each pMDI unit were measured by Next Generation cascade impaction (N=3) for each pMDI suspension.” for “mm.”

[3] = Additional through life dosing content uniformity of nintedanib suspension in HFO-1234ze(E), coated 63-microliter valve; conditions: nominal 1 mg/actuation (15.9 mg/mL), HFO-1234ze(E) without ethanol
Method: as §1
(§4) A suspension of nintedanib was prepared in HFO-1234ze(E). The concentration of nintedanib (15.9 mg/mL) was selected to provide a nominal actuation dose of 1 mg/actuation from a 63-microliter valve. The bottle emptier, tank, spring, and ferrule components of the valves were coated with a fluoropolymer coating according to the general process described in Example 2 of U.S. Patent Application Publication 2017/0152396 A1 (Jinks et al., hereby incorporated by reference). The formulation was mixed with a high shear mixer and cold filled into 16 mL FEP-coated canisters.
(§5) Average fine particle mass (<5 μm) was 434 μg/actuation.

[4] = Fine particle mass of nintedanib suspension in HFO-1234ze(E), coated 63-microliter valve; conditions: nominal 1 mg/actuation (15.9 mg/mL), HFO-1234ze(E) without ethanol
Method: as §1, §4, §5

[5] = nominal ex-valve 0.5 mg/act, HFA152a/2% EtOH (w/w), 63-μL valve
[6] = nominal ex-valve 0.5 mg/act, HFA152a, 63-μL valve
[7] = nominal ex-valve 0.5 mg/act, HFO1234ze(E)/2% EtOH (w/w), 63-μL valve
[8] = nominal ex-valve 0.5 mg/act, HFO1234ze(E), 63-μL valve
[9] = nominal ex-valve 1.0 mg/act, HFA152a/2% EtOH (w/w), 63-μL valve
[10] = nominal ex-valve 1.0 mg/act, HFA152a, 63-μL valve
[11] = nominal ex-valve 1.0 mg/act, HFO1234ze(E)/2% EtOH (w/w), 63-μL valve
[12] = nominal ex-valve 1.0 mg/act, HFO1234ze(E), 63-μL valve
[13] = nominal ex-valve 2.0 mg/act, HFA152a, 100-μL valve
[14] = nominal ex-valve 2.0 mg/act, HFO1234ze(E), 100-μL valve
[15] = nominal ex-valve 0.5 mg/act, HFA-152a/2% EtOH (w/w), 63-μL valve
[16] = nominal ex-valve 0.5 mg/act, HFA-152a, 63-μL valve
[17] = nominal ex-valve 0.5 mg/act, HFO-1234ze(E)/2% EtOH (w/w), 63-μL valve
[18] = nominal ex-valve 0.5 mg/act, HFO-1234ze(E), 63-μL valve
[19] = nominal ex-valve 1.0 mg/act, HFA-152a/2% EtOH (w/w), 63-μL valve
[20] = nominal ex-valve 1.0 mg/act, HFA-152a, 63-μL valve
[21] = nominal ex-valve 1.0 mg/act, HFO-1234ze(E)/2% EtOH (w/w), 63-μL valve
[22] = nominal ex-valve 1.0 mg/act, HFO-1234ze(E), 63-μL valve
[23] = nominal ex-valve 2.0 mg/act, HFA-152a, 100-μL valve
[24] = nominal ex-valve 2.0 mg/act, HFO-1234ze(E), 100-μL valve

## COC(=O)c1ccc2c(c1)NC(=O)/C2=C(\Nc1ccc(N(C)C(=O)CN2CCN(C)CC2)cc1)c1ccccc1 [nintedanib (free base), nintedanib]
[1]; 2% ethanol by weight, HFA-152a or HFO-1234ze(E)
  effect of addition of ethanol on through unit life ex-actuator delivered dose consistency: did not always substantially improve
[1]; HFA-152a or HFO-1234ze(E) with and without 2% ethanol by weight
  through unit life ex-actuator delivered dose consistency: relatively consistent
[1]; [5]
  EoL mean delivered dose: 383.1 μg/act
  MoL mean delivered dose: 364.6 μg/act
  SoL mean delivered dose: 452.4 μg/act
  TL mean delivered dose: 400.1 μg/act
[1]; [6]
  EoL mean delivered dose: 335.9 μg/act
  MoL mean delivered dose: 360.0 μg/act
  SoL mean delivered dose: 468.9 μg/act
  TL mean delivered dose: 388.3 μg/act
[1]; [7]
  EoL mean delivered dose: 378.0 μg/act
  MoL mean delivered dose: 385.9 μg/act
  SoL mean delivered dose: 431.1 μg/act
  TL mean delivered dose: 398.3 μg/act
[1]; [8]
  EoL mean delivered dose: 380.5 μg/act
  MoL mean delivered dose: 372.8 μg/act
  SoL mean delivered dose: 401.8 μg/act
  TL mean delivered dose: 385.0 μg/act
[1]; [9]
  EoL mean delivered dose: 818.8 μg/act
  MoL mean delivered dose: 773.1 μg/act
  SoL mean delivered dose: 940.6 μg/act
  TL mean delivered dose: 844.2 μg/act
[1]; [10]
  EoL mean delivered dose: 890.2 μg/act
  MoL mean delivered dose: 759.1 μg/act
  SoL mean delivered dose: 1020.0 μg/act
  TL mean delivered dose: 889.8 μg/act
[1]; [11]
  EoL mean delivered dose: 818.5 μg/act
  MoL mean delivered dose: 824.9 μg/act
  SoL mean delivered dose: 926.7 μg/act
  TL mean delivered dose: 856.7 μg/act
[1]; [12]
  EoL mean delivered dose: 947.3 μg/act
  MoL mean delivered dose: 962.2 μg/act
  SoL mean delivered dose: 947.8 μg/act
  TL mean delivered dose: 952.4 μg/act
[1]; [13]
  EoL mean delivered dose: 1954.6 μg/act
  MoL mean delivered dose: 1876.0 μg/act
  SoL mean delivered dose: 2205.7 μg/act
  TL mean delivered dose: 2012.2 μg/act
[1]; [14]
  EoL mean delivered dose: 2282.4 μg/act
  MoL mean delivered dose: 1884.0 μg/act
  SoL mean delivered dose: 1561.8 μg/act
  TL mean delivered dose: 1909.4 μg/act
[2]; HFA-152a or HFO-1234ze(E), with and without ethanol, in-vitro
  MMAD values of aerosols, suitability: in an appropriate respirable range
[2]; HFA-152a or HFO-1234ze(E), all nominal doses
  FPF and MMAD without ethanol compared with corresponding suspensions with 2% ethanol by weight: consistently produced greater FPFs and smaller MMADs
[2]; [15]
  Mean FPF: 26.9%
  Mean MMAD: 3.65 μm
[2]; [16]
  Mean FPF: 33.7%
  Mean MMAD: 3.74 μm
[2]; [17]
  Mean FPF: 36.8%
  Mean MMAD: 3.50 μm
[2]; [18]
  Mean FPF: 60.0%
  Mean MMAD: 2.88 μm
[2]; [19]
  Mean FPF: 18.0%
  Mean MMAD: 4.74 μm
[2]; [20]
  Mean FPF: 23.8%
  Mean MMAD: 5.01 μm
[2]; [21]
  Mean FPF: 29.3%
  Mean MMAD: 4.20 μm
[2]; [22]
  Mean FPF: 44.4%
  Mean MMAD: 3.66 μm
[2]; [23]
  Mean FPF: 16.7%
  Mean MMAD: 7.47 μm
[2]; [24]
  Mean FPF: 34.8%
  Mean MMAD: 4.08 μm
[2]; with or without ethanol
  FPF and MMAD in HFO-1234ze(E) compared with corresponding suspensions in HFA-152a: consistently produced greater FPFs and smaller MMADs
[3]
  Through life dosing content uniformity, trend: no trending between start, middle, and end of life
  average dose (through life dosing content uniformity): 950 μg/actuation
[4]
  Average fine particle mass (<5 μm): 434 μg/actuation
